Format in all cases: functional
Assay [1] has as its system Spodoptera litura. Description: Ovicidal activity against […] Spodoptera litura in paraffin paper assessed as egg mortality at 8 to 16 ppm at 25 degC, 65% RH measured after 7 days by egg dipping method.
Assay [2] relates to Mythimna separata. Description: Insecticidal activity against third-instar larvae Mythimna separata (Oriental armyworm) in compound treated maize leaves assessed as mortality at 0.1 ppm at 25 degC, 65% RH measured after 5 days by leaf dipping method. The note with it: foliar, 120 h.
Assay [3] deals with Spodoptera litura. Description: Insecticidal activity against third-instar larvae of Spodoptera litura in compound treated sweet potato leaves assessed as mortality at 0.25 to 1 ppm at 25 degC, 65% RH measured after 5 days by leaf dipping method.
Assay [4] has as its system Spodoptera litura. Description: Ovicidal activity against […] Spodoptera litura in paraffin paper assessed as egg mortality at 31 to 125 ppm at 25 degC, 65% RH measured after 7 days by egg dipping method.
Assay [5] concerns Spodoptera litura. Description: Insecticidal activity against third-instar larvae of Spodoptera litura in compound treated sweet potato leaves assessed as mortality at 0.1 ppm at 25 degC, 65% RH measured after 5 days by leaf dipping method. The following applies: foliar, 120 h.
The test system of assay [6] is Spodoptera litura. Description: Ovicidal activity against […] Spodoptera litura in paraffin paper assessed as egg mortality at 125 ppm at 25 degC, 65% RH measured after 7 days by egg dipping method. The note with it: 168 h.
Assay [7] deals with Spodoptera litura. Description: Ovicidal activity against […] Spodoptera litura in paraffin paper assessed as egg mortality at 1 to 4 ppm at 25 degC, 65% RH measured after 7 days by egg dipping method.
For assay [8], the system named is Spodoptera litura. Description: Insecticidal activity against third-instar larvae of Spodoptera litura in compound treated sweet potato leaves assessed as mortality at 2 to 4 ppm at 25 degC, 65% RH measured after 5 days by leaf dipping method.
Assay [9] has as its system Mythimna separata. Description: Insecticidal activity against third-instar larvae Mythimna separata (Oriental armyworm) in compound treated maize leaves assessed as mortality at 0.25 to 1 ppm at 25 degC, 65% RH measured after 5 days by leaf dipping method.
Assay [10] deals with Mythimna separata. Description: Insecticidal activity against third-instar larvae Mythimna separata (Oriental armyworm) in compound treated maize leaves assessed as mortality at 2 to 4 ppm at 25 degC, 65% RH measured after 5 days by leaf dipping method.
Assay [11] has as its system Spodoptera litura. Description: Insecticidal activity against third-instar larvae of Spodoptera litura in compound treated sweet potato leaves assessed as mortality at 31 ppm at 25 degC, 65% RH measured after 5 days by leaf dipping method. The following applies: foliar, 120 h.
Assay [12] relates to Mythimna separata. Description: Insecticidal activity against third-instar larvae Mythimna separata (Oriental armyworm) in compound treated maize leaves assessed as mortality at 8 to 31 ppm at 25 degC, 65% RH measured after 5 days by leaf dipping method.
Assay [13] concerns Spodoptera litura. Description: Insecticidal activity against third-instar larvae of Spodoptera litura in compound treated sweet potato leaves assessed as mortality at 8 to 31 ppm at 25 degC, 65% RH measured after 5 days by leaf dipping method.
The test system of assay [14] is Spodoptera litura. Description: Ovicidal activity against […] Spodoptera litura in paraffin paper assessed as egg mortality at 0.5 ppm at 25 degC, 65% RH measured after 7 days by egg dipping method. The note with it: 168 h.

A value given as a limit tells only on which side of the number the result lay.

As usually defined, the mortality is the percentage killed. `O=c1nc(-c2c(F)cccc2F)sn1-c1cc(F)c(OC(F)(F)F)cc1F`: the mortality in assay [1] and in [3] was over 90% each time. In addition, the mortality at 0.1 ppm in assay [2] is over 90%.
With `O=c1nc(-c2c(F)cccc2F)sn1-c1ccc(OC(F)(F)F)c(F)c1Cl`, the mortality in assay [4] is over 90%. Besides, the mortality at 0.1 ppm in assay [5] and in assay [2] was over 90% each time.
In the case of `O=c1nc(-c2c(F)cccc2F)sn1-c1ccc(OC(F)(F)F)c(Cl)c1F`, in [6], the mortality at 125 ppm is under 90%. The mortality at 0.1 ppm in [2] is over 90%. Besides, the mortality in assay [3] is recorded as over 90%.
Take `O=c1nc(-c2c(F)cccc2F)sn1-c1cc(Cl)c(OC(F)(F)F)cc1F`: the mortality at 0.1 ppm in assay [2] was over 90%. In addition, the mortality in [7] and in assay [8] was over 90% throughout.
With `O=c1nc(-c2c(F)cccc2F)sn1-c1cc(F)c(OC(F)(F)F)cc1Cl`, the mortality in [1] and in assay [9] was over 90% each time. Besides, in assay [5], the mortality at 0.1 ppm is over 90%.
`Cc1c(OC(F)(F)F)ccc(-n2sc(-c3c(F)cccc3F)nc2=O)c1F`: the mortality in assay [1] and in [3] was over 90% in each case. Besides, in [2], the mortality at 0.1 ppm is over 90%.
`O=c1nc(-c2c(F)cccc2F)on1-c1ccc(Cl)cc1`: the mortality at 125 ppm in [6] was under 90%. In [9], the mortality is given as over 90%.
As to `O=c1nc(-c2c(Cl)cccc2Cl)on1-c1ccc(Cl)cc1`, in [10], the mortality is over 90%. Further, the mortality at 125 ppm in assay [6] was under 90%. The mortality at 31 ppm in [11] was under 90%.
Consider `O=c1nc(-c2c(F)cccc2F)on1-c1ccc(OC(F)(F)F)cc1`, for which the mortality in assay [1] and in [10] was over 90% throughout. Further, the mortality at 31 ppm in [11] was under 90%.
Turning to `O=c1nc(-c2ccccc2Cl)on1-c1ccc(OC(F)(F)F)cc1`, the mortality at 125 ppm in [6] is under 90%. In addition, the mortality in assay [9] is recorded as over 90%. For the same molecule, the mortality at 31 ppm in [11] was under 90%.
`Cc1ccccc1-c1nc(=O)n(-c2ccc(OC(F)(F)F)cc2)o1`: the mortality in assay [1] and in assay [12] was over 90% throughout. Also, the mortality at 31 ppm in assay [11] is under 90%.
As for `O=c1nc(-c2c(F)cccc2F)on1-c1ccc(C(F)(F)F)cc1`, in assay [9], the mortality is on record as over 90%. For the same molecule, in assay [11], the mortality at 31 ppm was under 90%.
In the case of `O=c1nc(-c2c(F)cccc2F)on1-c1ccc(OC(F)(F)F)c(Cl)c1`, in [6], the mortality at 125 ppm is under 90%. Further, the mortality at 0.1 ppm in assay [2] was over 90%. Further, the mortality in assay [8] is over 90%.
For the molecule `O=c1nc(-c2ccccc2Br)sn1-c1ccc(OC(F)(F)F)cc1`, the mortality in assay [1], in [13] and in assay [12] was over 90% in each case.
With `O=c1nc(-c2c(Cl)cccc2Cl)sn1-c1ccc(OC(F)(F)F)cc1`, the mortality in assay [10] was over 90%. The mortality at 125 ppm in assay [6] is under 90%. In addition, the mortality at 31 ppm in assay [11] is under 90%.
In the case of `O=c1nc(-c2c(F)cccc2Cl)sn1-c1ccc(OC(F)(F)F)cc1`, the mortality in [1] and in assay [9] was over 90% each time.
Turning to `O=c1nc(-c2c(F)cccc2F)sn1-c1cc(Cl)c(Oc2ncc(C(F)(F)F)cc2Cl)c(Cl)c1`, the mortality at 125 ppm in [6] was under 90%. Besides, the mortality in assay [9] was over 90%. Besides, the mortality at 31 ppm in assay [11] is under 90%.
`O=c1nc(-c2c(F)cccc2F)sn1-c1ccc(OC(F)(F)F)cc1Cl`: the mortality in assay [12], in [7] and in [8] was over 90% throughout.
Take `O=c1nc(-c2c(F)cccc2F)sn1-c1ccc(OC(F)(F)F)c(Cl)c1`: the mortality in [4] is recorded as over 90%. In addition, the mortality at 0.1 ppm in assay [2] is over 90%. In addition, in [11], the mortality at 31 ppm was under 90%.
For `Cc1cc(OC(F)(F)F)ccc1-n1sc(-c2c(F)cccc2F)nc1=O`, the mortality in [4] and in [13] was over 90% each time. Besides, in assay [2], the mortality at 0.1 ppm is over 90%.
`Cc1cc(-n2sc(-c3c(F)cccc3F)nc2=O)ccc1OC(F)(F)F`: the mortality in [4] and in [8] was over 90% in each case. The mortality at 0.1 ppm in assay [2] is over 90%.
`O=c1nc(-c2c(F)cccc2F)sn1-c1ccc(OC(F)(F)F)cc1F`: the mortality in assay [1] and in assay [3] was over 90% in each case. The mortality at 0.1 ppm in [2] was over 90%.
In the case of `O=c1nc(-c2c(F)cccc2F)sn1-c1ccc(OC(F)(F)F)c(F)c1`, the mortality in assay [1], in assay [8] and in assay [9] was over 90% each time.
In the case of `O=c1nc(-c2c(F)cccc2F)sn1-c1ccc(OC(F)(F)F)c(Cl)c1Cl`, the mortality at 125 ppm in [6] is under 90%. Also, the mortality in assay [3] and in assay [9] was over 90% in each case.
Turning to `O=c1nc(-c2c(F)cccc2F)sn1-c1cc(Cl)c(OC(F)(F)F)cc1Cl`, the mortality at 125 ppm in assay [6] is under 90%. The mortality in assay [8] and in assay [9] was over 90% each time.
Take `Cc1c(OC(F)(F)F)ccc(-n2sc(-c3c(F)cccc3F)nc2=O)c1C`: the mortality at 125 ppm in [6] was under 90%. The mortality at 0.1 ppm in assay [2] was over 90%. Further, the mortality in [3] is listed as over 90%.
As for `Cc1cc(-n2sc(-c3c(F)cccc3F)nc2=O)c(C)cc1OC(F)(F)F`, the mortality at 125 ppm in assay [6] was under 90%. Besides, the mortality at 0.1 ppm in [2] was over 90%. In assay [8], the mortality is given as over 90%.
As to `Cc1cc(-n2sc(-c3c(F)cccc3F)nc2=O)cc(C)c1OC(F)(F)F`, the mortality at 125 ppm in assay [6] was under 90%. The mortality in assay [8] and in assay [9] was over 90% in each case.
For the molecule `O=c1nc(-c2c(F)cccc2F)sn1-c1ccc(OC(F)(F)F)c(F)c1F`, in [1], the mortality was over 90%. The mortality at 0.1 ppm in assay [5] and in assay [2] was over 90% in each case.
For the molecule `O=c1nc(-c2c(Cl)cccc2Cl)sn1-c1ccc(Cl)cc1`, in [6], the mortality at 125 ppm was under 90%. The mortality in assay [12] is over 90%. The mortality at 31 ppm in assay [11] is under 90%.
Regarding `O=c1nc(-c2c(F)cccc2F)sn1-c1ccc(Cl)cc1`, the mortality at 125 ppm in assay [6] is under 90%. Further, the mortality in assay [9] is listed as over 90%. For the same molecule, in assay [11], the mortality at 31 ppm is under 90%.
On to `O=c1nc(-c2c(F)cccc2F)sn1-c1ccc(C(F)(F)F)cc1`, for which, in assay [1], the mortality is listed as over 90%. In assay [2], the mortality at 0.1 ppm was over 90%. Further, the mortality at 31 ppm in assay [11] is under 90%.
In the case of `O=c1nc(-c2c(F)cccc2F)sn1-c1ccc(OC(F)(F)F)cc1`, the mortality in [1] and in [13] was over 90% throughout. Also, the mortality at 0.1 ppm in assay [2] is over 90%.
`Cc1ccccc1-c1nc(=O)n(-c2ccc(OC(F)(F)F)cc2)s1`: the mortality in assay [1] and in assay [10] was over 90% throughout. Moreover, in assay [11], the mortality at 31 ppm was under 90%.
Turning to `O=c1nc(-c2ccccc2F)sn1-c1ccc(OC(F)(F)F)cc1`, the mortality in assay [1], in assay [10] and in assay [13] was over 90% in each case.
Consider `O=C(NC(=O)c1c(F)cccc1F)Nc1ccc(Cl)cc1` [DIFLUBENZURON], for which, in assay [2], the mortality at 0.1 ppm was over 90%. For the same molecule, the mortality in assay [7] is over 90%. Further, the mortality at 31 ppm in [11] was under 90%.
As for `O=C(NC(=O)c1ccccc1Cl)Nc1ccc(OC(F)(F)F)cc1` [TRIFLUMURON], the mortality at 0.5 ppm in [14] is over 90%. Besides, the mortality in [13] is reported as over 90%. Further, the mortality at 0.1 ppm in [2] was over 90%.

The values above are taken from ChEMBL document CHEMBL3046397, “Synthesis and Insecticidal Activity of 4-1, 2, 4-Thiadiazolin-3-ones” (J Pestic Sci, 1994).
